From ChEMBL document CHEMBL1201862, “PubChem BioAssay data set” (2004)
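Protocol summary: plate cells (96-well), add compound at 5 concentrations, incubate 48 h, interpolate endpoints linearly. GI50 = concentration required for 50% inhibition of growth.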 Activity calls are given as the source filed them. No stated cut-off is given here; in the data, active = GI50 up to about 1.1 µM and inactive = higher.

Legend:
Test in all cases: NCI-60 cell line screen, 48 h
A498 = tested on: A498
A549 = tested on: A549
CAKI-1 = tested on: CAKI-1
DU-145 = tested on: DU-145
HCT-15 = tested on: HCT-15
HOP-92 = tested on: HOP-92
IGROV-1 = tested on: IGROV-1
KM12 = tested on: KM12
LOX IMVI = tested on: LOX IMVI
Malme-3M = tested on: Malme-3M
NCI-H226 = tested on: NCI-H226
NCI-H460 = tested on: NCI-H460
NCI-H522 = tested on: NCI-H522
NCI/ADR-RES = tested on: NCI/ADR-RES
OVCAR-5 = tested on: OVCAR-5
PC-3 = tested on: PC-3
RXF 393 = tested on: RXF 393
SK-MEL-28 = tested on: SK-MEL-28
SK-OV-3 = tested on: SK-OV-3
UACC-257 = tested on: UACC-257
786-0 = tested on: 786-0
ACHN = tested on: ACHN
CCRF-CEM = tested on: CCRF-CEM
COLO 205 = tested on: COLO 205
EKVX = tested on: EKVX
HCT-116 = tested on: HCT-116
HL-60 = tested on: HL-60
HOP-62 = tested on: HOP-62
HT-29 = tested on: HT-29
Hs-578T = tested on: Hs-578T
M14 = tested on: M14
MCF7 = tested on: MCF7
MDA-MB-231 = tested on: MDA-MB-231
MDA-MB-435 = tested on: MDA-MB-435
MDA-N = tested on: MDA-N
NCI-H23 = tested on: NCI-H23
OVCAR-3 = tested on: OVCAR-3
OVCAR-4 = tested on: OVCAR-4
OVCAR-8 = tested on: OVCAR-8
RPMI-8226 = tested on: RPMI-8226
SF-268 = tested on: SF-268
SF-295 = tested on: SF-295
SF-539 = tested on: SF-539
SK-MEL-2 = tested on: SK-MEL-2
SK-MEL-5 = tested on: SK-MEL-5
SN12C = tested on: SN12C
SNB-19 = tested on: SNB-19
SNB-75 = tested on: SNB-75
SW-620 = tested on: SW-620
T47D = tested on: T47D
TK-10 = tested on: TK-10
U-251 = tested on: U-251
UACC-62 = tested on: UACC-62
UO-31 = tested on: UO-31
HCC 2998 = tested on: HCC 2998
K562 = tested on: K562
MOLT-4 = tested on: MOLT-4
SR = tested on: SR

## CN(C)C1C(=O)C(C(N)=O)=C(O)C2(O)C(O)=C3C(=O)c4c(O)cccc4C(C)(O)C3CC12 (centres undefined)
A498
  GI50: 43.8 µM (inactive)
A549
  GI50: 60.8 µM (inactive)
CAKI-1
  GI50: 38.7 µM (inactive)
DU-145
  GI50: 68.4 µM (inactive)
HCT-15
  GI50: 50.5 µM
HOP-92
  GI50: > 100 µM (inactive)
IGROV-1
  GI50: 52.8 µM (inactive)
KM12
  GI50: 73.8 µM (inactive)
LOX IMVI
  GI50: 33.7 µM (inactive)
Malme-3M
  GI50: 67.3 µM (inactive)
NCI-H226
  GI50: 82.6 µM (inactive)
NCI-H460
  GI50: 52 µM (inactive)
NCI-H522
  GI50: 78 µM (inactive)
NCI/ADR-RES
  GI50: 76.4 µM (inactive)
OVCAR-5
  GI50: > 100 µM (inactive)
PC-3
  GI50: > 100 µM (inactive)
RXF 393
  GI50: 43.6 µM (inactive)
SK-MEL-28
  GI50: 93.5 µM (inactive)
SK-OV-3
  GI50: 76.6 µM (inactive)
UACC-257
  GI50: > 100 µM (inactive)

## Cc1cn2c(/C=N/NC(=N)N)c(-c3ccc([N+](=O)[O-])cc3)nc2s1
786-0
  GI50: 0.256 µM (active)
A498
  GI50: 1.52 µM (inactive)
A549
  GI50: 1.66 µM (inactive)
ACHN
  GI50: 1.49 µM (inactive)
CAKI-1
  GI50: 2.61 µM (inactive)
CCRF-CEM
  GI50: 0.194 µM (active)
COLO 205
  GI50: 0.685 µM (active)
DU-145
  GI50: 2.49 µM (inactive)
EKVX
  GI50: 0.338 µM (active)
HCT-116
  GI50: 0.227 µM (active)
HCT-15
  GI50: 1.46 µM
HL-60
  GI50: 1.53 µM (inactive)
HOP-62
  GI50: 1.29 µM (inactive)
HOP-92
  GI50: 0.641 µM (active)
HT-29
  GI50: 1.32 µM (inactive)
Hs-578T
  GI50: 0.935 µM (active)
KM12
  GI50: 0.401 µM (active)
LOX IMVI
  GI50: 0.352 µM (active)
M14
  GI50: 1.17 µM (inactive)
MCF7
  GI50: 0.252 µM (active)
MDA-MB-231
  GI50: 0.385 µM (active)
MDA-MB-435
  GI50: 1.57 µM (inactive)
MDA-N
  GI50: 0.425 µM (active)
Malme-3M
  GI50: 1.39 µM (inactive)
NCI-H226
  GI50: 1.87 µM (inactive)
NCI-H23
  GI50: 1.59 µM (inactive)
NCI-H460
  GI50: 1.76 µM (inactive)
NCI/ADR-RES
  GI50: 4.04 µM (inactive)
OVCAR-3
  GI50: 1.65 µM (inactive)
OVCAR-4
  GI50: 0.169 µM (active)
OVCAR-5
  GI50: 0.785 µM (active)
OVCAR-8
  GI50: 0.149 µM (active)
PC-3
  GI50: 1.4 µM (inactive)
RPMI-8226
  GI50: 1.42 µM (inactive)
RXF 393
  GI50: 0.914 µM (active)
SF-268
  GI50: 1.64 µM (inactive)
SF-295
  GI50: 1.46 µM (inactive)
SF-539
  GI50: 1.68 µM (inactive)
SK-MEL-28
  GI50: 1.57 µM (inactive)
SK-MEL-2
  GI50: 1.36 µM (inactive)
SK-MEL-5
  GI50: 1.36 µM (inactive)
SK-OV-3
  GI50: 1.76 µM (inactive)
SN12C
  GI50: 1.46 µM (inactive)
SNB-19
  GI50: 0.357 µM (active)
SNB-75
  GI50: 0.509 µM (active)
SW-620
  GI50: 0.175 µM (active)
T47D
  GI50: 0.566 µM (active)
TK-10
  GI50: 1.57 µM (inactive)
U-251
  GI50: 0.995 µM (active)
UACC-257
  GI50: 1.18 µM (inactive)
UACC-62
  GI50: 1.72 µM (inactive)
UO-31
  GI50: 1.95 µM (inactive)

## C[C@H](CO)C1=CC(C#C[Si](C)(C)C)N(C(=O)Oc2ccccc2)c2ccccc21 (some centres undefined)
786-0
  GI50: 14.2 µM (inactive)
A549
  GI50: 11.6 µM (inactive)
ACHN
  GI50: 13.8 µM (inactive)
CAKI-1
  GI50: 14.1 µM (inactive)
CCRF-CEM
  GI50: 10.9 µM (inactive)
COLO 205
  GI50: 5.6 µM (inactive)
DU-145
  GI50: 16.9 µM (inactive)
EKVX
  GI50: 13.3 µM (inactive)
HCC 2998
  GI50: 10.6 µM (inactive)
HCT-116
  GI50: 10.8 µM (inactive)
HCT-15
  GI50: 3.06 µM
HL-60
  GI50: 10.4 µM (inactive)
HOP-62
  GI50: 6.05 µM (inactive)
HOP-92
  GI50: 12.9 µM (inactive)
HT-29
  GI50: 4.92 µM (inactive)
Hs-578T
  GI50: 10.2 µM (inactive)
IGROV-1
  GI50: 12.4 µM (inactive)
K562
  GI50: 4.54 µM (inactive)
KM12
  GI50: 4.93 µM (inactive)
LOX IMVI
  GI50: 15.7 µM (inactive)
M14
  GI50: 7.69 µM (inactive)
MDA-MB-231
  GI50: 10.3 µM (inactive)
MDA-MB-435
  GI50: 2.26 µM (inactive)
MDA-N
  GI50: 3.58 µM (inactive)
MOLT-4
  GI50: 9.12 µM (inactive)
NCI-H226
  GI50: 15.7 µM (inactive)
NCI-H23
  GI50: 4.29 µM (inactive)
NCI-H460
  GI50: 9.25 µM (inactive)
NCI-H522
  GI50: 3.94 µM (inactive)
NCI/ADR-RES
  GI50: 3.18 µM (inactive)
OVCAR-3
  GI50: 3.93 µM (inactive)
OVCAR-4
  GI50: 7.1 µM (inactive)
OVCAR-5
  GI50: 15 µM (inactive)
OVCAR-8
  GI50: 17.7 µM (inactive)
PC-3
  GI50: 10.2 µM (inactive)
RPMI-8226
  GI50: 20 µM (inactive)
RXF 393
  GI50: 10.2 µM (inactive)
SF-268
  GI50: 13.3 µM (inactive)
SF-295
  GI50: 3.86 µM (inactive)
SF-539
  GI50: 16 µM (inactive)
SK-MEL-28
  GI50: 16.6 µM (inactive)
SK-MEL-2
  GI50: 13.4 µM (inactive)
SK-MEL-5
  GI50: 12.7 µM (inactive)
SK-OV-3
  GI50: 11.6 µM (inactive)
SN12C
  GI50: 12 µM (inactive)
SNB-19
  GI50: 15.8 µM (inactive)
SNB-75
  GI50: 6.5 µM (inactive)
SR
  GI50: 3.4 µM (inactive)
SW-620
  GI50: 12.4 µM (inactive)
T47D
  GI50: 15.9 µM (inactive)
TK-10
  GI50: 17 µM (inactive)
U-251
  GI50: 14.6 µM (inactive)
UACC-257
  GI50: 13.6 µM (inactive)
UACC-62
  GI50: 5.3 µM (inactive)
UO-31
  GI50: 9.27 µM (inactive)

## Cc1nc2c(O)cc3c4c(=O)n(C)c(=O)n(C)c4n(Cc4ccccc4)c3c2nc1C
786-0
  GI50: 17 µM (inactive)
A498
  GI50: 33 µM (inactive)
A549
  GI50: 19.2 µM (inactive)
ACHN
  GI50: 17.9 µM (inactive)
CCRF-CEM
  GI50: 4.99 µM (inactive)
COLO 205
  GI50: 13.3 µM (inactive)
DU-145
  GI50: 18.3 µM (inactive)
EKVX
  GI50: 24.3 µM (inactive)
HCC 2998
  GI50: 22.7 µM (inactive)
HCT-116
  GI50: 14.4 µM (inactive)
HCT-15
  GI50: 17.9 µM
HL-60
  GI50: 24.2 µM (inactive)
HOP-62
  GI50: 17.6 µM (inactive)
HOP-92
  GI50: 13.8 µM (inactive)
HT-29
  GI50: 15.8 µM (inactive)
Hs-578T
  GI50: 26.5 µM (inactive)
K562
  GI50: 34.1 µM (inactive)
KM12
  GI50: 21.2 µM (inactive)
LOX IMVI
  GI50: 18.9 µM (inactive)
M14
  GI50: 17.6 µM (inactive)
MCF7
  GI50: 15.8 µM (inactive)
MDA-MB-231
  GI50: 20.4 µM (inactive)
MDA-MB-435
  GI50: 17.4 µM (inactive)
MDA-N
  GI50: 18.4 µM (inactive)
MOLT-4
  GI50: 24.5 µM (inactive)
Malme-3M
  GI50: 18.7 µM (inactive)
NCI-H226
  GI50: 21.6 µM (inactive)
NCI-H23
  GI50: 19.3 µM (inactive)
NCI-H460
  GI50: 45.8 µM (inactive)
NCI/ADR-RES
  GI50: 25.8 µM (inactive)
OVCAR-4
  GI50: 11.1 µM (inactive)
OVCAR-5
  GI50: 22.6 µM (inactive)
OVCAR-8
  GI50: 18.3 µM (inactive)
PC-3
  GI50: 16.7 µM (inactive)
RPMI-8226
  GI50: 19.1 µM (inactive)
RXF 393
  GI50: 13.2 µM (inactive)
SF-268
  GI50: 17.6 µM (inactive)
SF-295
  GI50: 50.5 µM (inactive)
SF-539
  GI50: 16 µM (inactive)
SK-MEL-28
  GI50: 14.3 µM (inactive)
SK-MEL-2
  GI50: 18 µM (inactive)
SK-MEL-5
  GI50: 18.1 µM (inactive)
SK-OV-3
  GI50: 17.1 µM (inactive)
SN12C
  GI50: 19.9 µM (inactive)
SNB-19
  GI50: 18.6 µM (inactive)
SR
  GI50: 24.4 µM (inactive)
SW-620
  GI50: 19.5 µM (inactive)
TK-10
  GI50: 17.6 µM (inactive)
U-251
  GI50: 18.3 µM (inactive)
UACC-257
  GI50: 18.4 µM (inactive)
UACC-62
  GI50: 18.2 µM (inactive)
UO-31
  GI50: 17.6 µM (inactive)
